≈ marks a conversion by molar mass, not a printed value. Read-outs that look alike come from different tables or passages of the source. Bounds are passed on as bounds.

This note sets out measurements from patent US6831190B1, “Guanidinomethyl cyclohexane carboxylic acid ester derivatives” (Teikoku Chemical Industries Co., Ltd., priority 1994, dated 2004).

Holding throughout (assay type): cell-based
In test [1] the test system is Staphylococcus aureus 209PJC. Briefly: MIC, standard method of Japanese Chemotherapy Academy. The following applies: Strain 11: Staphylococcus aureus 209PJC. The method, then: (§1) 1. Minimum Inhibitory Concentration (MIC) was measured in accordance with the standard method of Japanese Chemotherapy Academy (Chemotherapy, 29: 76-79, 1981).
(§2) And MIC of the compounds of Example 3, 36, 8, 14, 17, 21, 41 and 45 were measured.

Test [2] has as its system Staphylococcus aureus ATCC 6538. Described as above. The following applies: Strain 12: Staphylococcus aureus ATCC 6538. The method, then:
as §1, §2

In test [3] the test system is Bacillus subtilis ATCC 6633. The description is as above. The following applies: for MIC: Strain 13: Bacillus subtilis ATCC 6633; for MIC against bacillus subcillus ATCC 6633: standard method of Japanese Chemotherapy Academy. The method, then: as §1, §2
Test [4] deals with Staphylococcus aureus No. 2 (MRSA). The description is as above. The following applies: Strain 14: Staphylococcus aureus No. 2 (MRSA). The method, then:
as §1, §2

Test [5] has as its system Helicobacter pylori ATCC 43504. The test can be described thus: MIC, agar plating dilution (standard method of Japanese Chemotherapy Academy). In short, it runs like this:
(§3)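 Agar dilution MIC followed the Japanese Chemotherapy Academy standard method, on Brain Heart Infusion agar with 0.1% cyclodextrin and compounds dissolved in DMSO. Plates were incubated microaerobically at 37 °C for three days.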

Test [6] deals with Helicobacter pylori ATCC 43629. The test is described as above. Summed up: as §3
Test [7] deals with Helicobacter pylori No. 28. Briefly: MIC, agar plating dilution, clinical segregation strain. The method, then:
(§4) Minimum Inhibitory Concentration (MIC) was measured in accordance with the standard method of Japanese Chemotherapy Academy (Chemotherapy, 29: 76-79, 1981). Sensitivity was measured with an agar plating dilution using Brain-Heart Infusion agar (Difco Co.) which was added 0.1% of cyclodextrin. […] of the solutions of the compounds which were obtained in examples of the present invention was prepared by dissolving in dimethylsulfoxide. […] Each of 1 ml of those prepared solutions was dispensed in share, after sterilization, 9 ml of sensitivity measuring medium which is kept at 50° C. was added to each, and they were sufficiently mixed. The mixture was used as a plate for measuring sensitivity. Brain Heart Infusion agar medium (Difco Co.), which was added 0.1% of cyclodextrin, was used as bacteria growing medium, and was cultured under microair at 37° C. for three days, and the number of bacteria thereof was adjusted to about 106/ml. This was used as a bacterial solution for inoculation. The medium was painted in each square about 2 cm with nichromic line loop. The medium was cultured under microair for three days at 37° C. […] The each result is shown at Table 4.

Test [8] deals with Helicobacter pylori No. 2. The test is described as above. The method, then: as §4
The test system of test [9] is Helicobacter pylori No. 20. The test is described as above. The procedure:
as §4

For test [10], the system named is Helicobacter pylori No. 3. The description is as above. The procedure: as §4
Test [11] concerns Helicobacter pylori No. 4. The description is as above. The procedure:
as §4

The subject of test [12] is Helicobacter pylori No. 1. The description is as above. The procedure:
as §4

The test system of test [13] is Helicobacter pylori No. 19. The description is as above. The procedure:
as §4

In test [14] the test system is Escherichia coli NIH JC-2. Briefly: MIC, standard method of Japanese Chemotherapy Academy. The following applies: Objected Strain 3: Escherichia coli NIH JC-2. The method, then:
as §1

In test [15] the test system is Helicobacter pylori ATCC 43504. Briefly: MIC and MBC, liquid medium dilution. The following applies: Objected Strain 1: Helicobacter pylori ATCC 43504. The method, then:
(§5) 2. Minimum Inhibitory Concentration (MIC) and Minimum Bacteria sterilizeory Concentration (MBC) against helicobacter pylon were measured in accordance with the liquid medium dilution. […] And […] of helicobacter pylon bacterial solution, which was cultured at 37° C. for three days and then diluted and prepared with the above mentioned liquid medium, was added to the mixtures to adjust the volume to 105 CFU/ml. […] After they were cultured by the same method as above mentioned, minimum concentration of the compounds which were not recognized the growth with the naked eyes were measured as the values of MBC.

For test [16], the system named is Helicobacter pylori No. 2. The test can be described thus: MIC and MBC, liquid medium dilution. The following applies: Objected Strain 5: Helicobacter pylori No. 2. The method, then:
as §5

The subject of test [17] is Helicobacter pylori ATCC 43629. Briefly: MIC and MBC, liquid medium dilution. The following applies: Objected Strain 2: Helicobacter pylori ATCC 43629. The procedure: as §5
For test [18], the system named is Helicobacter pylori No. 3. The test can be described thus: MIC and MBC, liquid medium dilution. The following applies: Objected Strain 6: Helicobacter pylori No. 3. The method, then:
as §5

Test [19] has as its system Helicobacter pylori No. 4. Briefly: MIC and MBC, liquid medium dilution. The following applies: Objected Strain 7: Helicobacter pylori No. 4. The method, then: as §5
The subject of test [20] is Helicobacter pylori No. 1. The test can be described thus: MIC and MBC, liquid medium dilution. The following applies: Objected Strain 4: Helicobacter pylori No. 1. The method, then: as §5
[21] abbreviates: Objected Strain 1: Helicobacter pylori ATCC 43504.
Setting [22] is: Objected Strain 2: Helicobacter pylori ATCC 43629.
Where [23] appears, read: Strain 10: Helicobacter pylori No. 28.
[24] abbreviates: Strain 5: Helicobacter pylori No. 2.
[25] abbreviates: Strain 9: Helicobacter pylori No. 20.
The mark [26] stands for this setting: Strain 6: Helicobacter pylori No. 3.
The mark [27] stands for this setting: Strain 7: Helicobacter pylori No. 4.
Setting [28] is: Strain 4: Helicobacter pylori No. 1.
Setting [29] is: Strain 8: Helicobacter pylori No. 19.

As a reminder, the MIC is the lowest concentration that inhibits growth of the organism. As for `CC1(C)S[C@@H]2[C@H](NC(=O)[C@H](N)c3ccc(O)cc3)C(=O)N2[C@H]1C(=O)O` [Amoxicillin, amoxicillin, reference compound], the MIC turned out to be 0.1 µg/mL (≈ 0.274 µM) in test [1] (read-out: MIC); 0.05 µg/mL (≈ 0.137 µM) in test [2] (ATCC6538, read-out: MIC); 0.05 µg/mL (≈ 0.137 µM) in test [3] (ATCC6633, read-out: MIC); 0.2 µg/mL (≈ 0.547 µM) in test [4] (read-out: MIC); 0.05 µg/mL (≈ 0.137 µM) in [5] (ATCC43504, Objected Strain 1: Helicobacter pylori ATCC 43504, read-out: MIC); 0.025 µg/mL (≈ 0.0684 µM) in [6] (ATCC43629, Objected Strain 2: Helicobacter pylori ATCC 43629, read-out: MIC). Besides, the MIC in test [7] (Strain 10: Helicobacter pylori No. 28, read-out: MIC) was found to be 0.05 µg/mL (≈ 0.137 µM); in [8] (Strain 5: Helicobacter pylori No. 2, read-out: MIC), 0.1 µg/mL (≈ 0.274 µM); in test [9] (Strain 9: Helicobacter pylori No. 20, read-out: MIC), 0.025 µg/mL (≈ 0.0684 µM); in test [10] (Strain 6: Helicobacter pylori No. 3, read-out: MIC), 0.025 µg/mL (≈ 0.0684 µM); in test [11] (Strain 7: Helicobacter pylori No. 4, read-out: MIC), 0.05 µg/mL (≈ 0.137 µM); in [12] (Strain 4: Helicobacter pylori No. 1, read-out: MIC) it was 0.1 µg/mL (≈ 0.274 µM). For the same molecule, the MIC in [13] (Strain 8: Helicobacter pylori No. 19, read-out: MIC) amounted to 0.025 µg/mL (≈ 0.0684 µM).

Consider `Cl.N=C(N)NC[C@H]1CC[C@H](C(=O)Oc2ccc(-c3ccc(Cl)cc3)cc2)CC1` [Example 8, trans-4-guanidinomethyl cyclohexane carboxylic acid [4-(4-chlorophenyl)phenylester].hydrochloride], for which the MIC turned out to be 0.78 µg/mL in test [1]; 1.56 µg/mL in [2]; 6.25 µg/mL in [3]; 1.56 µg/mL in [4]; 0.78 µg/mL in test [5] (setting [21]); 0.39 µg/mL in test [6] (setting [22]). The minimum inhibitory concentration (MIC) came to 0.39 µg/mL in test [7] (setting [23]); 0.39 µg/mL in test [8] (setting [24]); 0.39 µg/mL in test [9] (setting [25]); 0.10 µg/mL in [10] (setting [26]); 0.39 µg/mL in test [11] (setting [27]); 0.10 µg/mL in test [12] (setting [28]). For the same molecule, the MIC was 0.20 µg/mL in test [13] (setting [29]) and greater than 25 µg/mL in [14].

As a reminder, the MBC is the smallest concentration meeting the test's criterion for killing. High values mean weaker bactericidal potency, low ones greater bactericidal potency. `Cl.N=C(N)NC[C@H]1CC[C@H](C(=O)Oc2ccc(-c3ccc(C(=O)OCc4ccc(Cl)cc4)cc3)cc2)CC1` [Example 15, trans4-guanidinomethyl cyclohexane carboxylic acid [4-[4-(4-chlorobenzyloxy carbonyl)phenyl]phenylester].hydrochloride]: the MIC against bacillus subcillus ATCC 6633 in [3] is greater than 25 µg/mL. Moreover, the MIC in test [5] (setting [21]) amounted to 0.78 µg/mL; in [6] (setting [22]), 0.39 µg/mL; in [15] it was 0.20 µg/mL; in [16], 0.39 µg/mL; in test [17] it was 0.39 µg/mL; in test [18], 0.05 µg/mL. In addition, the MIC is 0.39 µg/mL in test [19]; 0.20 µg/mL in test [20]; 0.39 µg/mL in test [8] (setting [24]); 0.10 µg/mL in test [10] (setting [26]); 0.20 µg/mL in test [11] (setting [27]); 0.10 µg/mL in [12] (setting [28]). The same molecule returned an MIC in test [14] greater than 25 µg/mL. Moreover, the MBC in test [15] stood at 0.39 µg/mL; in test [16] it was 1.56 µg/mL; in test [17], 1.56 µg/mL; in test [18], 0.10 µg/mL; in test [19], 0.39 µg/mL; in [20], 0.78 µg/mL.

In the case of `Cl.N=C(N)NC[C@H]1CC[C@H](C(=O)Oc2ccc(-c3ccc(C(=O)OCc4ccc(F)cc4)cc3)cc2)CC1` [Example 16, trans-4-guanidinomethyl cyclohexane carboxylic acid [4-[4-(4-fluorobenzyloxycarbonyl)phenyl]phenylester].hydrochloride], the MIC against bacillus subcillus ATCC 6633 in [3] is greater than 25 µg/mL. Also, the MIC in test [5] (setting [21]) was 0.78 µg/mL; in test [6] (setting [22]), 0.78 µg/mL; in test [15] it was 0.20 µg/mL; in [16], 0.78 µg/mL; in test [17] it was 0.39 µg/mL; in test [18], 0.05 µg/mL. In addition, the MIC in test [19] was determined as 0.10 µg/mL; in test [20] it was 0.20 µg/mL; in [8] (setting [24]), 0.78 µg/mL; in test [10] (setting [26]) it was 0.20 µg/mL; in test [11] (setting [27]), 0.39 µg/mL; in [12] (setting [28]) it was 0.20 µg/mL. The MIC in test [14] was greater than 25 µg/mL. In addition, the MBC is 0.39 µg/mL in test [15]; 3.13 µg/mL in test [16]; 1.56 µg/mL in [17]; 0.10 µg/mL in test [18]; 0.39 µg/mL in test [19]; 0.78 µg/mL in [20].

As for `Cl.N=C(N)NC[C@H]1CC[C@H](C(=O)Oc2ccc(-c3ccc(C(=O)OCCc4ccc(Cl)cc4)cc3)cc2)CC1` [Example 45, trans-4-guanidinomethyl cyclohexane carboxylic acid[4-[4-[2-(4-chlorophenyl)ethyloxycarbonyl)phenyl]phenylester].hydrochloride], the MIC in test [1] was greater than 25 µg/mL; in [2], greater than 25 µg/mL; in [3] it was greater than 25 µg/mL; in test [4], greater than 25 µg/mL; in test [5] (setting [21]) it was 0.39 µg/mL; in test [6] (setting [22]), 0.39 µg/mL. Also, the MIC in [7] (setting [23]) is 0.39 µg/mL; in test [8] (setting [24]), 0.39 µg/mL; in test [9] (setting [25]), 0.20 µg/mL; in [10] (setting [26]), 0.39 µg/mL; in [11] (setting [27]), 3.13 µg/mL; in [12] (setting [28]), 0.39 µg/mL. Besides, the MIC in test [13] (setting [29]) was 0.20 µg/mL; in test [14] it was greater than 25 µg/mL.

As for `CC1COc2c(N3CCN(C)CC3)c(F)cc3c(=O)c(C(=O)O)cn1c23` (centres unmarked) [Ophroxacine, ophroxacine, reference compound], the MIC in test [1] was 0.39 µg/mL (≈ 1.08 µM); in test [2], 0.10 µg/mL (≈ 0.277 µM); in test [3] it was 0.10 µg/mL (≈ 0.277 µM); in test [4], 12.5 µg/mL (≈ 34.6 µM); in [5] (setting [21]) it was 0.78 µg/mL (≈ 2.16 µM); in test [6] (setting [22]) it was 0.78 µg/mL (≈ 2.16 µM). The MIC stood at 1.56 µg/mL (≈ 4.32 µM) in test [7] (setting [23]); 12.5 µg/mL (≈ 34.6 µM) in test [8] (setting [24]); 0.78 µg/mL (≈ 2.16 µM) in test [9] (setting [25]); 25.0 µg/mL (≈ 69.2 µM) in test [10] (setting [26]); 0.78 µg/mL (≈ 2.16 µM) in [11] (setting [27]); 0.78 µg/mL (≈ 2.16 µM) in test [12] (setting [28]). Besides, the MIC came to 0.78 µg/mL (≈ 2.16 µM) in test [13] (setting [29]) and 0.10 µg/mL (≈ 0.277 µM) in test [14].
